Results as given in PubChem BioAssay (NCI).
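Tested at 5 concentrations; 48 h exposure; 96-well plates; endpoints linearly interpolated, else capped at highest concentration. GI50: concentration for 50% inhibition of growth. The concentration for full growth arrest is given as TGI.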

What was measured:
Test in all cases: inhibition of tumour cell growth, NCI panel, 48 h
[1] = system: NCI-H23 lung
[2] = system: SK-MEL-5 melanoma
[3] = system: MOLT-4 leukemia
[4] = system: HCT-15 colon
[5] = system: SNB-75 CNS
[6] = system: HCC-2998 colon
[7] = system: SR leukemia
[8] = system: T-47D breast
[9] = system: NCI-H460 lung
[10] = system: EKVX NSCLC
[11] = system: MDA-MB-231 breast
[12] = system: HS 578T breast

Row | SMILES | TGI [1] [µM] | TGI [2] [µM] | TGI [3] [µM] | TGI [4] [µM] | TGI [5] [µM] | TGI [6] [µM] | TGI [7] [µM] | TGI [8] [µM] | TGI [9] [µM] | TGI [10] [µM] | TGI [11] [µM] | TGI [12] [µM] | GI50 [2] [µM] | GI50 [3] [µM] | GI50 [4] [µM] | GI50 [7] [µM] | GI50 [8] [µM] | GI50 [9] [µM] | GI50 [11] [µM]
1 | COC(=O)/C=C1\C(CO[Si](C)(C)C(C)(C)C)OC(n2ccc(=O)[nH]c2=O)C1O (centres undefined) | 55.3 | 21.7 | > 31.6 | 35.2 | > 100 | 26.2 | 26.4 | > 22.3 | 37.8 | 59.8 | > 100 | – | – | – | – | – | – | – | –
2 | CO/C(N)=C(\C#N)N=Cc1ccsc1 | > 100 | > 100 | > 100 | > 100 | > 100 | > 100 | – | > 100 | > 100 | > 100 | > 100 | > 100 | – | – | – | – | – | – | –
3 | Cc1nn(C(=O)Cc2ccccc2)c2c1C(c1ccc(/C=C/c3ccccc3)cc1)SC(N)=N2 (centres undefined) | > 100 | > 100 | > 100 | > 100 | > 100 | > 100 | – | > 100 | > 100 | > 100 | > 100 | > 100 | – | – | – | – | – | – | –
4 | Cc1csc(=Nc2ccccc2)n1CCC(O)(P(=O)(O)O)P(=O)(O)O | > 100 | > 100 | – | > 100 | > 100 | > 100 | – | – | > 100 | > 100 | > 100 | > 100 | – | – | – | – | – | – | –
5 | N#CC1=C(S)N(C2OC(CO)C(O)C(O)C2O)C(c2ccccc2)=CC1c1ccco1 (centres undefined) | > 100 | > 100 | > 100 | > 100 | 45.1 | > 100 | > 100 | 99.5 | > 100 | – | > 100 | > 100 | – | – | – | – | – | – | –
6 | COc1ccc(/C=C2\C[C@H]3[C@@H]4CC=C5C[C@@H](O)CC[C@]5(C)[C@H]4CC[C@]3(C)\C2=N\O)cc1 | > 100 | 23.3 | 34.3 | > 100 | – | – | 19 | 4.68 | > 100 | 8.78 | > 100 | 37.5 | – | – | – | – | – | – | –
7 | C/C=C1/C=CC2c3[nH]c4ccccc4c3CCN2C1 (centres undefined) | > 400 | > 400 | > 400 | > 400 | – | > 400 | > 400 | – | > 400 | > 400 | – | – | – | – | – | – | – | – | –
8 | CC(C)(C)n1c(=O)n2c(-c3ccccc3)c(-c3ccccc3)n2c1=O | > 100 | > 100 | – | > 100 | > 100 | > 100 | – | > 100 | > 100 | > 100 | > 100 | > 100 | – | – | – | – | – | – | –
9 | CC(=O)n1c2ccc(Br)cc2c2nc3ccccc3nc21 | > 100 | > 100 | > 100 | > 100 | > 100 | > 100 | > 100 | – | > 100 | > 100 | > 100 | – | – | – | – | – | – | – | –
10 | CCOC(OCC)(OCC)C(Br)CC (centres undefined) | > 100 | > 100 | > 100 | – | > 100 | > 100 | 49 | – | > 100 | > 100 | – | – | – | – | – | – | – | – | –
11 | O=[N+]([O-])c1ccc2c3c1[C@@H]1O[C@@H]1c1cccc(c1-3)[C@@H]1O[C@H]21 | 11.6 | 27.2 | > 100 | 6.05 | 17.5 | – | > 100 | 12 | – | 20.4 | 15.3 | 19.7 | – | – | – | – | – | – | –
12 | O[C@@H]1[C@H](OC2c3ccccc3-c3ccccc32)[C@H](OCc2ccccc2)[C@@H]2OC[C@H]1O2 | > 100 | > 100 | > 100 | > 100 | – | > 100 | – | > 100 | – | > 100 | > 100 | > 100 | – | – | – | – | – | – | –
13 | CCOC(=O)c1c(Cl)c2c(n1Cc1ccccc1)-c1oncc1CCC2 | – | > 100 | > 100 | > 100 | – | – | 8.24 | > 100 | > 100 | – | > 100 | – | 3.53 | 3.58 | 3.39 | 1.8 | 2.69 | 3.62 | 3.51
14 | CCN(CC)c1ccc(Cl)c2c1C(O)(C(C)C)C2(C)C (centres undefined) | 29 | 28.8 | 35.8 | 44.9 | 32 | 30.3 | – | – | 33.9 | – | – | – | – | – | – | – | – | – | –
15 | CCN(C(=O)N[C@@H](CC(C)C)C(=O)NCC(=O)OC)c1ccccc1 | > 100 | > 100 | > 100 | > 100 | > 100 | > 100 | > 100 | > 100 | > 100 | > 100 | > 100 | – | – | – | – | – | – | – | –
16 | COc1cc(Nc2cc(Cl)cc(Cl)c2)nc(N)n1 | 49.2 | 29.7 | 51 | 36.5 | 43.6 | 34 | – | 92.5 | 34 | 69 | 43.8 | 57 | – | – | – | – | – | – | –
17 | C[C@H]1CCC/C=C/[C@@H]2C[C@H](OC(=O)CN(C)C)C[C@H]2[C@H](O)/C=C/C(=O)O1 | 0.909 | 0.0944 | 2.79 | 5.54 | 99.7 | 0.235 | 3.49 | – | 4.05 | 22.2 | 0.0327 | > 10.5 | – | – | – | – | – | – | –
18 | C=C1CC[C@@H]2[C@](C)(COC(=O)CCC(=O)OC)CCC[C@@]2(C)[C@@H]1CCC1=CC(=O)OC1 | > 100 | > 100 | 47.7 | > 100 | – | – | 51.4 | 73 | > 100 | > 100 | > 100 | > 100 | – | – | – | – | – | – | –
19 | COC(=O)c1c(C)cccc1C1CN=NC12Cc1cc(C)c(C)cc1C2=O (centres undefined) | > 100 | 46.3 | > 100 | > 100 | > 100 | > 100 | – | > 100 | > 100 | > 100 | > 100 | > 100 | – | – | – | – | – | – | –
20 | CC(=O)Nc1nc2c(=O)c3ccccc3sc2s1 | > 100 | > 100 | > 100 | > 100 | > 100 | – | – | > 100 | > 100 | > 100 | > 100 | > 100 | – | – | – | – | – | – | –
21 | COC(=O)C1=C(OC)C(=P2(c3ccccc3)CC(c3ccccc3)=C2c2ccccc2)C(C(=O)OC)=C1C(=O)OC (centres undefined) | > 100 | > 81.9 | 13.8 | > 62.7 | > 100 | > 100 | – | > 51.5 | > 81.7 | > 100 | > 100 | > 100 | – | – | – | – | – | – | –
